“Also recorded” adds a separate entry of the source.
Columns and labels:
[1] = design: species or system mice; conditions: in vivo
Procedure: Male and Female BALB/c and C57BL/6 mice were provided with standard environmental conditions i.e., 22±1° C., 55±5% humidity and 12 h light/dark cycle with free food and water access. At the age of six weeks, animals were split into 8 groups (n=160 total, 20 of each gender) and were continuously fed ad libitum on the diet containing either H-AA or D-AA for 2, 4, 6 or 8 weeks at the daily rate of ca. 5 g of diet per mouse for the duration of the study. The other two groups of animals (n=40, 20 of each gender) received neither PUFA-enriched diets nor LPS served as controls. The body weight and food intake were measured once a week. […]
The relative ratio of H-AA to D-AA was determined by gas chromatography (GC) coupled to chemical ionization mass spectrometry. […]
As the first step to test this hypothesis, we studied the metabolic effect of such a dietary supplementation. We determined the actual content of D-AA and then performed a washout experiment after a long period of supplementation by switching from D-AA to H-AA diet by MS analysis of several mouse tissues in the AA-diet fed mice. […]

[2] = tested on: LPS induced acute lung inflammation; assay: Example 1a: mouse model of lung inflammation (FIGS. 3-6, Table 4); format: in vivo, mice; conditions: for Alveolar lumen area (25%; 75%) / Partition thickness Me (25%; 75%): + LPS, median; for protective / therapeutic effect compared to other deuterated PUFAs: preliminary data (not shown)
Procedure: FIGS. 3-6 Groups of female (f) and male (m) mice received a 6-week course of dietary (H) AA or a 6-week course of deuterated arachidonic acid (D6-ARA, 15 mg/day) followed by single intranasal administration of LPS.
LPS treatment promotes inflammation through various mechanisms including secretion of pro-inflammatory cytokines, eicosanoids and induction of ROS. Following induction by the intranasal administration of LPS, an acute lung inflammation quickly follows. […] Such a pronounced inflammatory infiltration of the interalveolar septa contributed to their destruction and more frequent formation of emphysema foci in this group. […] (See FIGS. 3-6.)
The degree of alveolar lumen area changes in both groups of animals depended on gender. […]

[3] = tested on: LPS-induced acute lung injury; assay: Example 5: response to intranasal LPS in mice fed AA diets (ALI model); format: in vivo, BALB/c and C57BL/6 mice; conditions: for LPS-induced perivascular edema as measured by alveolar wall thickness: 6 weeks diet, versus H-AA
Procedure: Mouse diet was from Research Diets (New Brunswick, NJ) based on fat-free AIN-93G. Fat was added at 11.3% by weight total fat and 0.25% either normal H-AA or D-AA respectively (Table 5).
Male and Female BALB/c and C57BL/6 mice were provided with standard environmental conditions i.e., 22±1° C., 55±5% humidity and 12 h light/dark cycle with free food and water access. At the age of six weeks, animals were split into 8 groups (n=160 total, 20 of each gender) and were continuously fed ad libitum on the diet containing either H-AA or D-AA for 2, 4, 6 or 8 weeks at the daily rate of ca. 5 g of diet per mouse for the duration of the study. The other two groups of animals (n=40, 20 of each gender) received neither PUFA-enriched diets nor LPS served as controls. The body weight and food intake were measured once a week. After completing the appropriate diet course, half of the mice in each group (10 females and 10 males) (i) underwent the procedure of bronchoalveolar lavage (BAL) to accomplish cytological smears, (ii) were subjected to tissue harvesting and collection of colon contents (after humane euthanasia with lethal dose of sodium thiopental, 100 mg/kg intravenously). On the ninth week of this diet course, the other half of the group was administered 1 mg/kg of intranasal (IN) LPS from Escherichia coli O111:B4 (Sigma Aldrich) 24 hours prior to BAL and subsequent euthanasia. 40 D-AA fed animals (20 males, 20 females) were switched to the H-AA diet for washout experiments.
Cell differential counts were performed on smear slides from resuspended cell pellets of BAL, using commercially available May-Grünwald-Giemsa staining kits. All slides were evaluated in a light microscope (Optec BK5000) at ×200 magnification. These cell counts such as lymphocytes, neutrophils, plasmacytes and macrophages were obtained from 10 fields of each slide.
Lung, stomach and colon samples were fixed with 4% formaldehyde (freshly prepared from paraformaldehyde), paraffin embedded and cut into 2-4 μm sections. For routine histology, all fixed tissue sections were stained with hematoxylin-eosin (H&E). All slides were evaluated at 10 fields each using a Genetic Pro Bino light microscope (A) and photographed with a digital camera (Delta Optical). Stomach and colon tissue sections were analyzed for signs of active and chronic inflammation, formation of lymph follicles, and hyperplasia of epithelial cells. The severity of lung injury was scored according to lung pathological changes, including interalveolar and perivascular hemorrhages, peri-vascular and peribronchial infiltration, perivascular edema, thickness of alveolar wall, alveolar space value, and emphysematous transformations. Lung tissue samples were additionally stained with commercially available Martius Scarlet Blue (MSB) stain kit (Avantik, USA) for fibrin visualization. The presence of homogeneous fibrin masses of yellow, pink or red color in the lung blood vessels were interpreted as thrombotic masses.
We challenged mice fed AA-diets for 6 weeks using LPS treatment. […] Perivascular edema, signs of thrombosis, alveolar wall thickening, irregular distribution of air spaces, and focal areas of alveolar hemorrhage were also observed. We preferred intranasal administration to the more extreme intratracheal route that induces IL-1β which in turn amplifies inflammation making it difficult to distinguish between the early and late consequences of the LPS challenge. Indeed, 24 hours after intranasal administration of LPS at a dose of 1 mg/kg, there was no significant increase in the IL-1B content in BAL fluid or colon homogenates compared to animals not treated with LPS regardless of type or duration of the diets. Intranasal LPS 24 hours post administration increased neutrophils in BAL fluid in all treated groups regardless of gender or form of AA diets.

[4] = tested on: LPS induced acute lung inflammation; assay: Example 2: LPS induced inflammation, H-AA versus D-AA, male and female mice; format: in vivo; conditions: for Interalveolar space / Interalveolar surface area: 6-week course, then single intranasal LPS; for inflammation in the lungs (in words): male and female mice, after LPS
Procedure: LPS administration was conducted as per Example 1 above except that four groups of mice were used. The first two groups (1 and 2) were control mice (male and female). The next two groups (3 and 4) of mice received a 6-week course of H-AA (male and female). Finally, the last two groups (5 and 6) of mice received a 6-week course of D6-AA (second group). Groups 3, 4, 5 and 6 then received a single intranasal administration of LPS to induce acute lung inflammation. The degree of the inflammatory response was determined per Example 1. Next, the height and distance of the interalveolar septa was determined to provide for the surface area of the inflammation.

[5] = 6 or 8 weeks diet, compared to H-AA

For `[2H]C([2H])(/C=C\CCCCC)/C=C\C([2H])([2H])/C=C\C([2H])([2H])/C=C\CCCC(=O)O` [D-AA, 7,7,10,10,13,13-D6-arachidonic acid], the “incorporation of the deuterated form” value ([1]; both, BALB/c and C57BL/6, mouse, 12 weeks) was “more than 60%”, the “washout with H-AA feeding” value ([1]; mouse) was “more rapid than brain” and the “alveolar lumen area and thickness versus controls” value ([2]; 6-week course, 15 mg/day, then single intranasal LPS) was “consistent with controls”. For the same compound, the “Alveolar lumen area (25%; 75%)” value ([2]; females) was 57.4 μm^2, the Partition thickness Me (25%; 75%) ([2]; females) was 3.6 µm and the “Alveolar lumen area (25%; 75%)” value ([2]; males) was 112.1 μm^2. For the same compound, the Partition thickness Me (25%; 75%) ([2]; males) was 5.55 µm, the “protective / therapeutic effect compared to other deuterated PUFAs” value [2] was “best protective effect” and the “protective / therapeutic effect compared to other deuterated PUFAs” value ([2]; listed as D6-AA) was “better therapeutic effect”. The “LPS-induced interalveolar septa / wall thickening (in words)” value ([3]; 6-week diet, then single intranasal LPS) was “greater protective action”, the “alveolar spaces and thickness of interalveolar walls” value [3, 5] was “improved” and the endotoxin-induced peribronchial infiltration [3, 5] was “significantly decreased”. For the same compound, the “LPS-induced lung tissue damage, inflammation and emphysema (in words)” value ([3]; dietary consumption prior to LPS exposure) was “substantially mitigated; also recorded: substantially reduced”, the “LPS-induced perivascular edema as measured by alveolar wall thickness” value ([3]; female mice) was “almost negligible” and the “LPS-induced perivascular edema as measured by alveolar wall thickness” value ([3]; male mice) was “significantly milder effect”. The “inflammatory cell types in BAL, H-AA versus D-AA” value ([3]; regardless of gender and LPS treatment) was “No statistically significant differences”, the Interalveolar space ([4]; female mice) was about 3.5 μm and the Interalveolar surface area ([4]; female mice) was about 90 μm^2. For the same compound, the “inflammation in the lungs (in words)” value [4] was “statistically significant reduction in inflammation”, the “inflammation in the lungs (in words)” value ([4]; listed as D-6 AA) was “less inflammation in the lungs” and the Interalveolar space ([4]; male mice) was about 5.0 μm. For the same compound, the Interalveolar surface area ([4]; male mice) was about 190 μm^2.
